Experimental findings from patent publication US20250367226A1, “ANTI-MALASSEZIA AGENT” (N.T.H Co., Ltd., priority 2024, published 2025) are described below.

The assay relates to Malassezia globosa. In words: Anti-Malassezia test (viability of Malassezia, WST microbial viability assay). The note with it: for viability at 1 µM / viability at 10 µM / viability at 100 µM: Malassezia globosa, 22 h, read-out: viability (%) of Malassezia, relative to negative control taken as 100; for anti-Malassezia effect compared with the positive control drugs: versus streptomycin sulfate, amorolfine hydrochloride, itraconazole; for concentration required to inhibit the viability of Malassezia by 20%: 20% inhibition of viability. The procedure:
The Malassezia strain was cultured in CHROMagar Malassezia/Candida prepared medium (Kanto Chemical Co., Ltd.).
In 1 L of distilled water were dissolved 10 g of D-glucose, 5 g of peptone, 3 g of yeast extract, 3 g of malt extract and 0.1 g of penicillin. The resulting solution was filtered and used for the experiments.
A suspension of Malassezia was prepared to an optical density equivalent to McFarland's Standard No. 3 and 0.5 mL of the suspension was added to tubes. Each of the prepared samples, oleic acid and the YM medium were mixed into the tubes, and Malassezia was cultured at 37° C. for 22 hours. The fungi were stained using Microbial viability assay kit-WST (Dojindo Laboratories) and cultured at 37° C. for 2 hours. The absorbance was measured to calculate the viability of Malassezia. The results are expressed as a percentage (%) relative to a negative control (“control”: with no addition of test substances) taken as 100. A lower percentage indicates a stronger anti-Malassezia effect. The values obtained in the experiments were expressed as the mean±S.E. The significance of the difference in the means between the test substance administration groups and the negative control group was tested by the Dunnett's test. The significance level was set at 5% or 1%.

Molecules are shown by their SMILES. Counter-ions that a name gives are not always drawn.

Take `CC(=O)c1c(O)cc(O[C@@H]2OC(CO)[C@@H](O)C(O)C2O)c(O[C@@H]2OC(CO)[C@@H](O)C(O)C2O)c1O` (some centres unmarked) [Compound 1, inermioside A]: the viability at 1 µM was 93.6%, the viability at 10 µM was determined as 81.3%, the viability at 100 µM stood at 76.3% and the “anti-Malassezia effect compared with the positive control drugs” value is reported as “comparable to or higher than that of the positive control drugs”.
`C[C@@H]1O[C@@H](OC[C@H]2O[C@@H](Oc3cc(O)c4c(=O)cc(-c5ccc(O)cc5)oc4c3)[C@H](O)[C@@H](O)[C@@H]2O)[C@H](O)[C@H](O)[C@H]1O` [Compound 2, apigenin 7-O-α-L-rhamnopyranosyl-(1→6)-β-D-glucopyranoside]: the viability at 1 µM came out at 83.6%, the viability at 10 µM came to 81.4%, the viability at 100 µM amounted to 61.5% and the “anti-Malassezia effect compared with the positive control drugs” value is recorded as “comparable to or higher than that of the positive control drugs”.
Take `CCC(C)n1ncn(-c2ccc(N3CCN(c4ccc(OCC5COC(Cn6cncn6)(c6ccc(Cl)cc6Cl)O5)cc4)CC3)cc2)c1=O` (centres unmarked) [Itraconazole, itraconazole, reference compound]: the “concentration required to inhibit the viability of Malassezia by 20%” value is “about 10 μM”.
For `[H]/N=C(/N)N[C@H]1[C@H](O)[C@@H](O)[C@H](O[C@@H]2O[C@@H](C)[C@](O)(C=O)[C@H]2O[C@@H]2O[C@@H](CO)[C@H](O)[C@@H](O)[C@@H]2NC)[C@@H](N/C(N)=N\[H])[C@@H]1O` [streptomycin sulfate, reference compound], the “concentration required to inhibit the viability of Malassezia by 20%” value is at least 137 µM and the viability at 10 µM was determined as 106%.
